# Laboratory results: US20080318931A1, “Treatment of Disorders and Diseases of the Colon” (priority 2004, published 2008)
# Legend:
# [1] = tested on: Cox-2; assay: Cox-2 expression in human PHA activated lymphocytes, Western blot; assay type: cell-based; conditions: 5 μM, PHA 15 μM
# Experimental: Total protein lysates from human lymphocyte culture were prepared by agitation with lysis buffer (20 mM Tris pH 7.5, 150 mM NaCl, 1 mM EDTA, 1% Nonidet P-40, 0.5% sodium deoxycholate, and 2 mM Na2VO4) for 1 h at 4° C. The proteins were cleared by centrifugation at 14,000×g for 20 min at 4° C. Protein concentration was determined using BCA kit (Pierce, Ill., USA). For Western blot analysis, 30 μg-protein from each sample were loaded in 7.5% SDS-PAGE. Electroblotted proteins were detected using specific anti COX-2 polyclonal antibody (Cayman chemical company, Michigan, USA) or an ti-Stat3 monoclonal antibody (Transduction Laboratories Lexington UK). Bound antibodies were visualized using chemiluminescence reaction.
# [2] = tested on: bcl-2; assay: bcl-2 expression in HT29 cells, western blot; assay type: cell-based, human; conditions: 10 and 20 μM, 24 hr
# Experimental: (§1) The effect of paroxetine and sertraline on the expression of bcl-2 and C-jun was evaluated in human colon HT29 cell-line 24 hr after drug administration, using western blot analysis for C-jun and bcl-2 and specific antibodies.
# [3] = tested on: C-jun; assay: C-jun expression in HT29 cells, western blot; assay type: cell-based, human; conditions: 10 and 20 μM, 24 hr
# Experimental: as §1
# [4] = tested on: DSS-induced acute colitis; assay: Rat model of DSS-induced acute colitis; assay type: in vivo; conditions: for number of days with significant DAI difference vs control: 9 days in water-treated DSS group
# Experimental: Potential anti-IBD effect of two different doses of paroxetine, namely 0.2% and 0.4% was assessed in the rat model of DSS-induced acute colitis (DSS—dextran sulfate sodium). The use of DSS is a well-defined method for the induction of colitis' in animals. DSS can be controlled more precisely regarding molecular weight distribution, grade of sulfate incorporation and impurities than other agents typically used to achieve the same clinical end-point. This reagent model is suitable for screening of new drugs as it uses small animals, the oral administration of the agent is convenient to use in large groups of animals and the induced colitis responds to treatment with conventional drugs (see for example Axelsson et al, 1993).
# Paroxetine (oral suspension, protected from light at or below 25° C.) was administered at two respective doses of 7.5 and 15 mg/kg by one daily repeated oral gavage (PO) for 16 days. Colitis induction commenced two days following initiation of treatment by continuous exposure ad libitum of the test animals to 3% DSS (36-50 kDa) in their drinking water (chlorinated and acidified, pH range of 5.1-5.9, freshly prepared on even test days). […] Two additional paroxetine-treated non-DSS induced groups were likewise treated with the same selected does to detect any unforeseen paroxetine related effects. Test groups comprised either n=8 (DSS induced) or n=4 (non-DSS induced) male Sprague Dawley (SD) rats (healthy, young […] weeks of age, total of 36 animals).
# Evaluation of anti-IBD effect was based on the following […] parameters: a. Daily clinical scoring of the characteristic experimental colitis signs, consisting of body weight loss, altered fecal consistency and hematochezia and expressed as Disease Activity Index (DAI); b. Body weight determination; c. Colon length; d. Macroscopic colon lesions scores noted at necropsy; and e. microscopic colon lesions score.
# The histological scoring system for the 3% DSS-induced colonic inflammation is shown below in Tables 1 and 2:
# Final data evaluation was carried out by statistical analysis of differences between mean group values for each of the above listed parameters in the DSS-induced groups vs. respective mean values in the water-treated non-DSS induced group.
compound,measurement,setting,value
Fc1ccc([C@@H]2CCNC[C@H]2COc2ccc3c(c2)OCO3)cc1 [paroxetine],PHA-induced increase in Cox-2 expression,[1],antagonized
same,expression of bcl-2,[2],inhibition
same,expression of C-jun,[3],stimulation
same,mean body weight vs respective control,"[4]; both doses (7.5 and 15 mg/kg PO), DSS-induced",did not reach statistical significance
same,mean colon length vs water-treated non-DSS induced group,"[4]; both doses, p<0.05",significantly shorter
same,medians of histopathological scores (lateral and in-depth extension),"[4]; both doses, differences not statistically significant",lower than for the control group
same,day of peak DAI score,[4]; both paroxetine-treated DSS-induced groups,10 days
same,mean macroscopic colon score vs control,[4]; high dose,did not significantly differ
same,number of days with significant DAI difference vs control,[4]; high paroxetine dose,6 days
same,mortality,[4]; high-dose (15 mg/kg PO) DSS-induced group,No mortality
same,mean macroscopic colon score vs control,"[4]; low dose, p<0.01",significantly higher
same,number of days with significant DAI difference vs control,[4]; low paroxetine dose,5 days
same,overall anti-IBD effect,"[4]; oral suspension, 7.5 and 15 mg/kg",trend of anti-IBD effect with a dose-response
same,mortality,"[4]; the dose paroxetine-treated DSS-induced group, n=8, PO daily 16 days",one
